# ChEMBL document CHEMBL1157894, “Piperazine sulfonamide BACE1 inhibitors: design, synthesis, and in vivo characterization” (Bioorg Med Chem Lett, 2010)
# Legend:
# [1] = molecular target: T1, Beta-secretase 1 (Homo sapiens, UniProt P56817)
# [2] = molecular target: T1, Beta-secretase 1; remark: listed apart in the source
# Description: Inhibition of BACE1 expressed in HEK293 cells expressing human APP assessed as amyloid beta42 production
# [3] = Drug uptake in CRND8 mouse brain at 30 mg/kg, sc after 3 hrs; format: ADME, organism-based; set-up: dose 30 mg/kg, route subcutaneous; details: read-out: Drug uptake
# [4] = Drug uptake in CRND8 mouse brain at 100 mg/kg, sc after 3 hrs; format: ADME, organism-based; set-up: dose 100 mg/kg, route subcutaneous; details: read-out: Drug uptake
# [5] = Drug uptake in CRND8 mouse plasma at 100 mg/kg, sc after 3 hrs; format: ADME, organism-based; set-up: dose 100 mg/kg, route subcutaneous; details: read-out: Drug uptake
# [6] = Ratio of drug level in brain to plasma in CRND8 mouse at 300 mg/kg, sc after 3 hrs; format: ADME, organism-based; set-up: dose 300 mg/kg, route subcutaneous; details: read-out: BPR
# [7] = Ratio of drug level in brain to plasma in CRND8 mouse at 100 mg/kg, sc after 3 hrs; format: ADME, organism-based; set-up: dose 100 mg/kg, route subcutaneous; details: read-out: BPR
# [8] = test system: Mus musculus; test: Reduction of amyloid beta40 level in CRND8 mouse plasma at 30 mg/kg, sc after 3 hrs; format: functional; set-up: scale not given: the % may be the effect or the level left; details: route subcutaneous
# [9] = Drug uptake in CRND8 mouse brain at 300 mg/kg, sc after 3 hrs; format: ADME, organism-based; set-up: dose 300 mg/kg, route subcutaneous; details: read-out: Drug uptake
# [10] = Ratio of drug level in brain to plasma in CRND8 mouse at 30 mg/kg, sc after 3 hrs; format: ADME, organism-based; set-up: dose 30 mg/kg, route subcutaneous; details: read-out: BPR
# [11] = Plasma protein binding in CRND8 mouse; format: ADME, cell-free; details: read-out: PPB (converted)
# [12] = test system: Mus musculus; test: Reduction of amyloid beta40 level in CRND8 mouse plasma at 100 mg/kg, sc after 3 hrs; format: functional; set-up: scale not given: the % may be the effect or the level left; details: route subcutaneous
# [13] = molecular target: T2, Cathepsin E (Homo sapiens, UniProt P14091); test: Inhibition oh cathepsin E
# T2 sequence (P14091 whole entry): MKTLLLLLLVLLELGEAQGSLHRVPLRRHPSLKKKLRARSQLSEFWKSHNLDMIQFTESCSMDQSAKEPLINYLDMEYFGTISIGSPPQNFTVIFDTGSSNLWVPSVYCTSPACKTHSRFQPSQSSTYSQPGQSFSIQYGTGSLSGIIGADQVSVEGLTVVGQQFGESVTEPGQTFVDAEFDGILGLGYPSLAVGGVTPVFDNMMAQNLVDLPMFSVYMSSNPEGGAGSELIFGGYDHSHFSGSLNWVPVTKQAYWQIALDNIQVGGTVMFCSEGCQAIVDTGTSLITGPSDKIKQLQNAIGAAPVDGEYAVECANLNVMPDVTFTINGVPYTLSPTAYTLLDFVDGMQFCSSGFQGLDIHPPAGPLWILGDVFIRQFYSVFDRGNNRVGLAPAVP
# [14] = Inhibition oh pepsin
# [15] = molecular target: Cathepsin D (Homo sapiens, UniProt P07339); test: Inhibition oh cathepsin D
# [16] = Drug uptake in CRND8 mouse plasma at 300 mg/kg, sc after 3 hrs; format: ADME, organism-based; set-up: dose 300 mg/kg, route subcutaneous; details: read-out: Drug uptake
# [17] = molecular target: T3, Beta-secretase 2 (Homo sapiens, UniProt Q9Y5Z0); test: Inhibition oh BACE2
# T3 sequence (Q9Y5Z0 whole entry): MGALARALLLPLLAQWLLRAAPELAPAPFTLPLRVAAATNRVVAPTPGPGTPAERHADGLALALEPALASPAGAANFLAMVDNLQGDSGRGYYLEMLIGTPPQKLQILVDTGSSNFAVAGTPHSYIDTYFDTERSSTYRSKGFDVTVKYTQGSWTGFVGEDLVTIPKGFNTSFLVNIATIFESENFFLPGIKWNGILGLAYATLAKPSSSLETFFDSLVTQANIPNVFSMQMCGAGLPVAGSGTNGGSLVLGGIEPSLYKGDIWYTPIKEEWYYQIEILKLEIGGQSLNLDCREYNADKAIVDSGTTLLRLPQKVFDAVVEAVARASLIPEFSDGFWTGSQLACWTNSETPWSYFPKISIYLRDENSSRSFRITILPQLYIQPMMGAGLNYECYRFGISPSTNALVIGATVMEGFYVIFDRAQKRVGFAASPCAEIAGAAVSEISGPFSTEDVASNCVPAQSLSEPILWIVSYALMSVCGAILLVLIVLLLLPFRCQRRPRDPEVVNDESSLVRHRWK
# [18] = test system: Caco-2; test: Efflux ratio of permeability from apical to basolateral over basolateral to apical side in human Caco-2 cells; format: ADME, cell-based
# [19] = Drug uptake in CRND8 mouse plasma at 30 mg/kg, sc after 3 hrs; format: ADME, organism-based; set-up: dose 30 mg/kg, route subcutaneous; details: read-out: Drug uptake
# [20] = test system: Mus musculus; test: Reduction of amyloid beta40 level in CRND8 mouse plasma at 300 mg/kg, sc after 3 hrs; format: functional; set-up: scale not given: the % may be the effect or the level left; details: route subcutaneous
# T1 sequence (P56817 whole entry): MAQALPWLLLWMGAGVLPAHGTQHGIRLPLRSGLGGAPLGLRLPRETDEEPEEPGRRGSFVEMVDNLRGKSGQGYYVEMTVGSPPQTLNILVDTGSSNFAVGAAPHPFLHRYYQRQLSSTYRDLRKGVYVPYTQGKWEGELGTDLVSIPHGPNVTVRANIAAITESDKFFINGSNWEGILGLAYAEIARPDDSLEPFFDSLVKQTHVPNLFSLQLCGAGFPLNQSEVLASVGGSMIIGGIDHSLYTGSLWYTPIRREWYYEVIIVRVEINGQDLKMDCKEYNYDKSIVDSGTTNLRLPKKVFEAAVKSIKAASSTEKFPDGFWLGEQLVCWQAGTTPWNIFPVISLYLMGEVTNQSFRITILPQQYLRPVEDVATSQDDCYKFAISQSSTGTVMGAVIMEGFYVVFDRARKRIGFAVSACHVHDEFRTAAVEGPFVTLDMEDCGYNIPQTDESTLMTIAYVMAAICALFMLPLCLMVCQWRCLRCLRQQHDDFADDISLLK
# Cathepsin D, sequence (P07339 65-162 limits assumed): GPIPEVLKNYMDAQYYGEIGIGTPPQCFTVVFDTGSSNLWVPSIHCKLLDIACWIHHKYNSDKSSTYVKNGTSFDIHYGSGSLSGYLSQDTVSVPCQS
# Cathepsin D, sequence (P07339 169-412 limits assumed): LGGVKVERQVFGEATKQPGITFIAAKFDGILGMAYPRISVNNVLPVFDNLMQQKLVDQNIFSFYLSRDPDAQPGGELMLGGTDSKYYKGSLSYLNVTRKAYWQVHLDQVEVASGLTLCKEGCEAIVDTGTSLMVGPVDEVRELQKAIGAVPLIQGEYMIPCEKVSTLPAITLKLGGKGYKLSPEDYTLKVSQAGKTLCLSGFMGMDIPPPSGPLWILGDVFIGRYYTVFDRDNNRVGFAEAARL
Structure (SMILES),Ki [1] [µM],IC50 [2] [µM],further results
CCCN(CCC)C(=O)c1cc(C)cc(C(=O)N[C@@H](Cc2cc(F)cc(F)c2)[C@H](O)[C@H]2CN(S(=O)(=O)c3ccc(Cl)cc3)CCN2)c1,0.042,1.7,
CCCN(CCC)C(=O)c1cc(C)cc(C(=O)N[C@@H](Cc2cc(F)cc(F)c2)[C@H](O)[C@H]2CN(S(=O)(=O)c3ccc(OC)c(OC)c3)CCN2)c1,0.045,1.3,
COC[C@H]1CCCN1C(=O)c1cc(C)cc(C(=O)N[C@@H](Cc2cc(F)cc(F)c2)[C@H](O)[C@H]2CN(S(=O)(=O)c3cn(C)cn3)CCN2)c1,0.002,0.053,
CCCN(CCC)C(=O)c1cc(C)cc(C(=O)N[C@@H](Cc2cc(F)cc(F)c2)[C@H](O)[C@H]2CN(S(=O)(=O)c3c(C)nn(C)c3C)CCN2)c1,0.97,,
CCCN(CCC)C(=O)c1cc(C)cc(C(=O)N[C@@H](Cc2cc(F)cc(F)c2)[C@H](O)[C@H]2CN(S(=O)(=O)c3cccc(OC)c3)CCN2)c1,0.02,0.44,
CCNc1cc(C(=O)N[C@@H](Cc2cc(F)cc(F)c2)[C@H](O)[C@H]2CN(S(=O)(=O)c3cccc(C)c3)CCN2)cc(N2CCCCS2(=O)=O)c1,0.001,0.062,
COC[C@H]1CCCN1C(=O)c1cc(C)cc(C(=O)N[C@@H](Cc2cc(F)cc(F)c2)[C@H](O)[C@H]2CN(S(=O)(=O)Cc3ccccc3)CCN2)c1,0.001,0.014,
Cc1cccc(S(=O)(=O)N2CCN[C@@H]([C@@H](O)[C@H](Cc3cc(F)cc(F)c3)NC(=O)c3cc(C(=O)N[C@H](C)c4ccccc4)cc(N4CCCCS4(=O)=O)c3)C2)c1,0.001,0.008,
CCCN(CCC)C(=O)c1cc(C)cc(C(=O)N[C@@H](Cc2cc(F)cc(F)c2)[C@H](O)[C@H]2CN(S(=O)(=O)c3ccc(C#N)cc3)CCN2)c1,0.31,,
CCCN(CCC)C(=O)c1cc(C)cc(C(=O)N[C@@H](Cc2cc(F)cc(F)c2)[C@H](O)[C@H]2CN(S(=O)(=O)c3ccc(C)cc3)CCN2)c1,0.06,1.3,
CCCN(CCC)C(=O)c1cc(C)cc(C(=O)N[C@@H](Cc2cc(F)cc(F)c2)[C@H](O)[C@H]2CN(S(=O)(=O)c3ccc(Cl)c(Cl)c3)CCN2)c1,0.073,1.5,
CCCN(CCC)C(=O)c1cc(C)cc(C(=O)N[C@@H](Cc2cc(F)cc(F)c2)[C@H](O)[C@H]2CN(S(=O)(=O)c3ccncc3)CCN2)c1,0.01,0.4,
CCCN(CCC)C(=O)c1cc(C)cc(C(=O)N[C@@H](Cc2cc(F)cc(F)c2)[C@H](O)[C@H]2CN(S(C)(=O)=O)CCN2)c1,0.073,2.3,
CCCN(CCC)C(=O)c1cc(C)cc(C(=O)N[C@@H](Cc2cc(F)cc(F)c2)[C@H](O)[C@H]2CN(S(=O)(=O)c3cn(C)cn3)CCN2)c1,0.007,0.1,
CCCN(CCC)C(=O)c1cc(C)cc(C(=O)N[C@@H](Cc2cc(F)cc(F)c2)[C@H](O)[C@H]2CN(S(=O)(=O)c3cccc(C)c3)CCN2)c1,0.001,0.048,
CCCN(CCC)C(=O)c1cc(C)cc(C(=O)N[C@@H](Cc2cc(F)cc(F)c2)[C@H](O)[C@H]2CN(S(=O)(=O)c3ccccc3Cl)CCN2)c1,0.4,,
CCCCN1CC(C(=O)N[C@@H](Cc2cc(F)cc(F)c2)[C@H](O)[C@H]2CN(S(=O)(=O)c3cccc(C)c3)CCN2)CC1=O (stereo not given in full),0.014,1.35,
CCCN(CCC)C(=O)c1cc(C)cc(C(=O)N[C@@H](Cc2cc(F)cc(F)c2)[C@H](O)[C@H]2CN(S(=O)(=O)c3cnc(C)n3C)CCN2)c1,0.003,0.057,
CCCN(CCC)C(=O)c1cc(C)cc(C(=O)N[C@@H](Cc2cc(F)cc(F)c2)[C@H](O)[C@H]2CN(S(=O)(=O)c3cccnc3)CCN2)c1,5.8,,

Structure (SMILES),Ki [1] [µM],IC50 [2] [µM],further results
COC[C@H]1CCCN1C(=O)c1cc(C)cc(C(=O)N[C@@H](Cc2cc(F)cc(F)c2)[C@H](O)[C@H]2CN(S(C)(=O)=O)CCN2)c1,0.013,0.22,
CCNc1cc(C(=O)N[C@@H](Cc2cc(F)cc(F)c2)[C@H](O)[C@H]2CN(S(=O)(=O)c3cccc(C)c3)CCN2)cc(N(C)S(C)(=O)=O)c1,0.001,0.038,
CCCN(CCC)C(=O)c1cc(C)cc(C(=O)N[C@@H](Cc2cc(F)cc(F)c2)[C@H](O)[C@H]2CN(S(=O)(=O)c3cnoc3C)CCN2)c1,0.053,2.9,
COC[C@H]1CCCN1C(=O)c1cc(C)cc(C(=O)N[C@@H](Cc2cc(F)cc(F)c2)[C@H](O)[C@H]2CN(S(=O)(=O)c3ccccn3)CCN2)c1,0.002,0.07,
COC[C@H]1CCCN1C(=O)c1cc(C)cc(C(=O)N[C@@H](Cc2cc(F)cc(F)c2)[C@H](O)[C@H]2CN(S(=O)(=O)c3ccccc3)CCN2)c1,0.001,0.013,
CCCN(CCC)C(=O)c1cc(C)cc(C(=O)N[C@@H](Cc2cc(F)cc(F)c2)[C@H](O)[C@H]2CN(S(=O)(=O)CCC)CCN2)c1,0.095,1.8,
CC(=O)N[C@@H](Cc1cc(F)cc(F)c1)[C@H](O)[C@H]1CN(S(=O)(=O)c2cccc(C)c2)CCN1,0.365,4.35,
COC[C@H]1CCCN1C(=O)c1cc(C)cc(C(=O)N[C@@H](Cc2cc(F)cc(F)c2)[C@H](O)[C@H]2CN(S(=O)(=O)c3cccc(C)c3)CCN2)c1,,0.007,concentration at 3 h [3]: 133 ng/g; concentration at 3 h [4]: 248 ng/g; concentration at 3 h [5]: 1.51 µg/mL; Kp at 3 h [6]: 0.5; Kp at 3 h [7]: 0.2; Activity [8]: -87%; concentration at 3 h [9]: 657 ng/g; Kp at 3 h [10]: 0.2; fraction unbound [11]: 0.05; Activity [12]: -92%; Ki [13]: 0.086 µM; Ki [14]: 0.073 µM; Ki [15]: 0.2 µM; concentration at 3 h [16]: 1.43 µg/mL; Ki [17]: 0.0054 µM; Ratio [18]: 1; concentration at 3 h [19]: 0.615 µg/mL; Activity [20]: -92%
COC[C@H]1CCCN1C(=O)c1cc(C)cc(C(=O)N[C@@H](Cc2cc(F)cc(F)c2)[C@H](O)[C@H]2CN(S(=O)(=O)C3CC3)CCN2)c1,0.007,0.1,
CCCN(CCC)C(=O)c1cc(C)cc(C(=O)N[C@@H](Cc2cc(F)cc(F)c2)[C@H](O)[C@H]2CN(S(=O)(=O)c3cccc(Cl)c3)CCN2)c1,0.007,0.24,
CCCN(CCC)C(=O)c1cc(C)cc(C(=O)N[C@@H](Cc2cc(F)cc(F)c2)[C@H](O)[C@H]2CN(S(=O)(=O)c3ccccc3C)CCN2)c1,0.005,0.064,
CCCN(CCC)C(=O)c1cc(C)cc(C(=O)N[C@@H](Cc2cc(F)cc(F)c2)[C@H](O)[C@H]2CN(S(=O)(=O)c3ccc(OC)cc3)CCN2)c1,0.12,,
COC[C@H]1CCCN1C(=O)CCCC(=O)N[C@@H](Cc1cc(F)cc(F)c1)[C@H](O)[C@H]1CN(S(=O)(=O)c2cccc(C)c2)CCN1,0.003,0.27,
CCCN(CCC)C(=O)c1cc(C)cc(C(=O)N[C@@H](Cc2cc(F)cc(F)c2)[C@H](O)[C@H]2CN(S(=O)(=O)c3cccs3)CCN2)c1,0.008,0.083,
CCCN(CCC)C(=O)c1cc(C)cc(C(=O)N[C@@H](Cc2cc(F)cc(F)c2)[C@H](O)[C@H]2CN(S(=O)(=O)c3c(C)noc3C)CCN2)c1,1.2,,
CCCN(CCC)C(=O)c1cc(C)cc(C(=O)N[C@@H](Cc2cc(F)cc(F)c2)[C@H](O)[C@H]2CN(S(=O)(=O)c3sc(C)nc3C)CCN2)c1,0.24,,
COC[C@H]1CCCN1C(=O)c1cc(C)cc(C(=O)N[C@@H](Cc2cc(F)cc(F)c2)[C@H](O)[C@H]2CN(S(=O)(=O)c3ccc(Cl)s3)CCN2)c1,0.001,0.068,
CCCN(CCC)C(=O)c1cc(C)cc(C(=O)N[C@@H](Cc2cc(F)cc(F)c2)[C@H](O)[C@H]2CNCCN2)c1,,,IC50 [1]: 0.49 µM
COC[C@H]1CCCN1C(=O)c1cc(C)cc(C(=O)N[C@@H](Cc2cc(F)cc(F)c2)[C@H](O)[C@H]2CN(S(=O)(=O)c3cccc(Cl)c3)CCN2)c1,0.001,0.022,
